pIC50: −log10 of the molar value.
Key:
[1] = Growth inhibition of human MCF7 cells after 48 hrs by WST1 assay; format: functional, cell-based; conditions: MCF7, 48 h
[2] = Growth inhibition of human K562 cells after 48 hrs by WST1 assay; format: functional, cell-based; conditions: K562, 48 h
MCF7 = test: Induction of apoptosis in human MCF7 cells at 10 uM after 48 hrs by Annexin-V FITC/propidium iodide staining based flow cytometry relative to control; format: functional

With O=C1Nc2ccccc2[C@]12N1CSC[C@H]1[C@H](c1cccc(Br)c1)[C@]21CCC/C(=C\c2cccc(Br)c2)C1=O as the compound, how does the pIC50 [1] read?
The pIC50 was 4.46.

And the pIC50 [2]?
The pIC50 was 4.65.

With Cc1ccc(/C=C2\CCC[C@@]3(C2=O)[C@@H](c2ccc(C)cc2)[C@@H]2CSCN2[C@@]32C(=O)Nc3ccccc32)cc1 as the compound, how does the pIC50 [1] read?
Its pIC50 is 4.37.

And the pIC50 [2]?
Its pIC50 is 4.42.

Which results are given for O=C1Nc2ccccc2[C@]12N1CSC[C@H]1[C@H](c1cccc([N+](=O)[O-])c1)[C@]21CCC/C(=C\c2cccc([N+](=O)[O-])c2)C1=O?
pIC50 [1]: 4.59; pIC50 [2]: 4.56

With Cc1cccc(/C=C2\CCC[C@@]3(C2=O)[C@@H](c2cccc(C)c2)[C@@H]2CSCN2[C@@]32C(=O)Nc3ccccc32)c1 as the compound, how does the pIC50 [1] read?
Its pIC50 is 4.55.

What about the pIC50 [2] of the same compound?
The pIC50 was 4.51.

With O=C1Nc2ccccc2[C@]12N1CSC[C@H]1[C@H](c1cccc(F)c1)[C@]21CCC/C(=C\c2cccc(F)c2)C1=O as the compound, how does the pIC50 [1] read?
The pIC50 was 3.84.

And the pIC50 [2]?
The pIC50 was 4.81.

What does the source list for O=C1Nc2ccccc2[C@]12N1CSC[C@H]1[C@H](c1ccc(Cl)cc1)[C@]21CCC/C(=C\c2ccc(Cl)cc2)C1=O?
pIC50 [1]: 4.31; pIC50 [2]: 4.62

With O=C1Nc2ccccc2[C@]12N1CSC[C@H]1[C@H](c1ccccc1)[C@]21CCC/C(=C\c2ccccc2)C1=O as the compound, how does the pIC50 [1] read?
The pIC50 was 4.57.

What about the pIC50 [2] of the same compound?
Its pIC50 is 4.78.

With O=c1[nH]cc(F)c(=O)[nH]1 [FLUOROURACIL] as the compound, how does the pIC50 [1] read?
Its pIC50 is 4.11.

What does the source list for COc1ccc(/C=C2\CCC[C@@]3(C2=O)[C@@H](c2ccc(OC)cc2)[C@@H]2CSCN2[C@@]32C(=O)Nc3ccccc32)cc1?
pIC50 [1]: 4.61; pIC50 [2]: 4.71

With O=C1Nc2ccccc2[C@]12N1CSC[C@H]1C(c1ccc(Cl)cc1Cl)[C@]21CCC/C(=C\c2ccc(Cl)cc2Cl)C1=O (single isomer, unassigned) as the compound, how does the pIC50 [1] read?
The pIC50 was 4.58.

And the pIC50 [2]?
Its pIC50 is 4.71.

With O=C1Nc2ccccc2[C@]12N1CSC[C@H]1[C@H](c1ccc(Br)cc1)[C@]21CCC/C(=C\c2ccc(Br)cc2)C1=O as the compound, how does the pIC50 [1] read?
Its pIC50 is 4.81.

And the pIC50 [2]?
Its pIC50 is 4.83.

And the “fold change (FC)” value (MCF7)?
Its value is 2.

Which results are given for O=C1Nc2ccccc2[C@]12N1CSC[C@H]1[C@H](c1ccc(C(F)(F)F)cc1)[C@]21CCC/C(=C\c2ccc(C(F)(F)F)cc2)C1=O?
pIC50 [1]: 4.31; pIC50 [2]: 4.48
